In US4181797A, “1-N-(ω-amino-α-hydroxyalkanoyl) derivatives of 4'-deoxy-6'-N-methylkanamycin A” (Bristol-Myers Company, priority 1978, dated 1980):
Converted amounts (≈) assume the structure as drawn.

Legend:
[1] = tested on: strains which phosphorylate the 3'-hydroxy group; details: background statement; cited from earlier work
[2] = tested on: resistant strains which contain 6'-N-acetylating enzymes; details: background statement; cited from earlier work
[3] = tested on: AAC(6')-producing and ANT(4')-producing strains; assay: Average activity relative to amikacin, Table 2 strains; type: cell-based; details: AAC(6')-producing and ANT(4')-producing strains of Table 2
Protocol: (§1) The Minimum Inhibitory Concentrations (MIC's) of BB-K311, amikacin and kanamycin A were determined in Mueller-Hinton agar against a number of kanamycin-sensitive and kanamycin-resistant strains of organisms.

E. cloacae A20364 = assay: MIC in Mueller-Hinton agar, APH(3')-I producer; type: cell-based; details: Enterobacter cloacae; E. cloacae A20364; enzyme produced: APH(3')-I; Mueller-Hinton agar; read-out: MIC
Protocol: as §1

E. coli A20363 = assay: MIC in Mueller-Hinton agar, APH(3')-I producer; type: cell-based; details: Escherichia coli; E. coli A20363; enzyme produced: APH(3')-I; Mueller-Hinton agar; read-out: MIC
Protocol: as §1

S. aureus A22054 = assay: MIC in Mueller-Hinton agar, ANT(4')-producing strain; type: cell-based; details: Staphylococcus aureus; S. aureus A22054; ANT(4')-producing; Mueller-Hinton agar; read-out: MIC
Protocol: as §1

B. brevis IFO 12334 = assay: as above; type: cell-based; details: Brevibacillus brevis, IFO12334; B. brevis IFO 12334; ANT(4')-producing; Mueller-Hinton agar; read-out: MIC
Protocol: as §1

S. epidermidis A22033 = assay: as above; type: cell-based; details: Staphylococcus epidermidis; S. epidermidis A22033; ANT(4')-producing; Mueller-Hinton agar; read-out: MIC
Protocol: as §1

E. coli A20732 = assay: MIC in Mueller-Hinton agar, ANT(2") producer; type: cell-based; details: Escherichia coli; E. coli A20732; enzyme produced: ANT(2"); Mueller-Hinton agar; read-out: MIC
Protocol: as §1

E. cloacae A21006 = assay: MIC in Mueller-Hinton agar, APH(3')-II producer; type: cell-based; details: Enterobacter cloacae; E. cloacae A21006; enzyme produced: APH(3')-II; Mueller-Hinton agar; read-out: MIC
Protocol: as §1

E. coli A20107 = assay: MIC in Mueller-Hinton agar, APH(3')-II producer; type: cell-based; details: Escherichia coli; E. coli A20107; enzyme produced: APH(3')-II; Mueller-Hinton agar; read-out: MIC
Protocol: as §1

S. aureus Smith = assay: MIC in Mueller-Hinton agar, kanamycin-sensitive strain; type: cell-based; details: Staphylococcus aureus; S. aureus Smith; enzyme produced: none; Mueller-Hinton agar; read-out: MIC
Protocol: as §1

K. pneumoniae A15130 = assay: as above; type: cell-based; details: Klebsiella pneumoniae; K. pneumoniae A15130; enzyme produced: none; Mueller-Hinton agar; read-out: MIC
Protocol: as §1

P. vulgaris A9526 = assay: as above; type: cell-based; details: Proteus vulgaris; P. vulgaris A9526; enzyme produced: none; Mueller-Hinton agar; read-out: MIC
Protocol: as §1

S. marcescens A20019 = assay: as above; type: cell-based; details: Serratia marcescens; S. marcescens A20019; enzyme produced: none; Mueller-Hinton agar; read-out: MIC
Protocol: as §1

P. mirabilis A9900 = assay: as above; type: cell-based; details: Proteus mirabilis; P. mirabilis A9900; enzyme produced: none; Mueller-Hinton agar; read-out: MIC
Protocol: as §1

E. coli A9632 = assay: as above; type: cell-based; details: Escherichia coli; E. coli A9632; enzyme produced: none; Mueller-Hinton agar; read-out: MIC
Protocol: as §1

E. cloacae A20464 = assay: as above; type: cell-based; details: Enterobacter cloacae; E. cloacae A20464; enzyme produced: none; Mueller-Hinton agar; read-out: MIC
Protocol: as §1

P. stuartii A20615 = assay: as above; type: cell-based; details: Providencia stuartii; P. stuartii A20615; enzyme produced: none; Mueller-Hinton agar; read-out: MIC
Protocol: as §1

P. Morganii A20031 = assay: as above; type: cell-based; details: Morganella morganii; P. Morganii A20031; enzyme produced: none; Mueller-Hinton agar; read-out: MIC
Protocol: as §1

B. brevis ATCC8185 = assay: as above; type: cell-based; details: Brevibacillus brevis; B. brevis ATCC8185; enzyme produced: none; Mueller-Hinton agar; read-out: MIC
Protocol: as §1

E. coli A20895 = assay: MIC in Mueller-Hinton agar, AAC(3)-I producer; type: cell-based; details: Escherichia coli; E. coli A20895; enzyme produced: AAC(3)-I; Mueller-Hinton agar; read-out: MIC
Protocol: as §1

S. aureus A22421 = assay: MIC in Mueller-Hinton agar, AAC(6')-producing strain; type: cell-based; details: Staphylococcus aureus; S. aureus A22421; AAC(6')-producing; Mueller-Hinton agar; read-out: MIC
Protocol: as §1

S. marcescens A22288 = assay: as above; type: cell-based; details: Serratia marcescens; S. marcescens A22288; AAC(6')-producing; Mueller-Hinton agar; read-out: MIC
Protocol: as §1

P. aeruginosa GN4925 = assay: as above; type: cell-based; details: Pseudomonas aeruginosa; P. aeruginosa GN4925; AAC(6')-producing; Mueller-Hinton agar; read-out: MIC
Protocol: as §1

S. marcescens A22382 = assay: as above; type: cell-based; details: Serratia marcescens; S. marcescens A22382; AAC(6')-producing; Mueller-Hinton agar; read-out: MIC
Protocol: as §1

S. marcescens A21226 = assay: as above; type: cell-based; details: Serratia marcescens; S. marcescens A21226; AAC(6')-producing; Mueller-Hinton agar; read-out: MIC
Protocol: as §1

P. aeruginosa GN315 = assay: as above; type: cell-based; details: Pseudomonas aeruginosa; P. aeruginosa GN315; AAC(6')-producing; Mueller-Hinton agar; read-out: MIC
Protocol: as §1

S. epidermidis A22211 = assay: as above; type: cell-based; details: Staphylococcus epidermidis; S. epidermidis A22211; AAC(6')-producing; Mueller-Hinton agar; read-out: MIC
Protocol: as §1

P. rettgeri HM-56 = assay: as above; type: cell-based; details: Providencia rettgeri, HM56; P. rettgeri HM-56; AAC(6')-producing; Mueller-Hinton agar; read-out: MIC
Protocol: as §1

S. epidermidis A22152 = assay: as above; type: cell-based; details: Staphylococcus epidermidis; S. epidermidis A22152; AAC(6')-producing; Mueller-Hinton agar; read-out: MIC
Protocol: as §1

S. aureus A22153 = assay: as above; type: cell-based; details: Staphylococcus aureus; S. aureus A22153; AAC(6')-producing; Mueller-Hinton agar; read-out: MIC
Protocol: as §1

E. cloacae HM-43 = assay: as above; type: cell-based; details: Enterobacter cloacae, HM43; E. cloacae HM-43; AAC(6')-producing; Mueller-Hinton agar; read-out: MIC
Protocol: as §1

S. marcescens A21235 = assay: as above; type: cell-based; details: Serratia marcescens; S. marcescens A21235; AAC(6')-producing; Mueller-Hinton agar; read-out: MIC
Protocol: as §1

E. coli A2128 = assay: as above; type: cell-based; details: Escherichia coli; E. coli A2128; AAC(6')-producing; Mueller-Hinton agar; read-out: MIC
Protocol: as §1

[4] = tested on: aminoglycoside-sensitive and aminoglycoside-resistant strains; assay: Antibacterial spectrum, Table 1 strains; type: cell-based; details: strains of Table 1, compared with amikacin
Protocol: as §1

In the case of `NCC1OC(OC2C(N)CC(N)C(OC3OC(CO)C(O)C(N)C3O)C2O)C(O)CC1O` (stereo not drawn) [3'-deoxykanamycin], the “activity against 3'-hydroxy phosphorylating strains” value [1] is given as “active against strains which phosphorylate the 3'-hydroxy group” and the “activity against strains with 6'-N-acetylating enzymes” value [2] is given as “inactivated by other resistant strains”.
For `CNC[C@@H]1C[C@H](O)[C@@H](O)[C@@H](O[C@H]2[C@H](O)[C@@H](O[C@H]3O[C@H](CO)[C@@H](O)[C@H](N)[C@H]3O)[C@H](NC(=O)[C@@H](O)CCN)C[C@@H]2N)O1` [BB-K311, 1-N-[L-(-)-γ-amino-α-hydroxybutyryl]-4'-deoxy-6'-N-methylkanamycin A], the “activity relative to amikacin, on the average” value [3] was “twice as active as amikacin”, the MIC (E. cloacae A20364) was 6.3 µg/mL (≈ 10.8 µM) and the MIC (E. coli A20363) was 3.1 µg/mL (≈ 5.31 µM). The MIC (S. aureus A22054) was 3.1 µg/mL (≈ 5.31 µM), the MIC (B. brevis IFO 12334) was 3.1 µg/mL (≈ 5.31 µM) and the MIC (S. epidermidis A22033) was 1.6 µg/mL (≈ 2.74 µM). The MIC (E. coli A20732) was 1.6 µg/mL (≈ 2.74 µM), the MIC (E. cloacae A21006) was 3.1 µg/mL (≈ 5.31 µM) and the MIC (E. coli A20107) was 6.3 µg/mL (≈ 10.8 µM). The MIC (S. aureus Smith) was 1.6 µg/mL (≈ 2.74 µM), the MIC (K. pneumoniae A15130) was 1.6 µg/mL (≈ 2.74 µM) and the MIC (P. vulgaris A9526) was 0.8 µg/mL (≈ 1.37 µM). It also gave an MIC (S. marcescens A20019) of 1.6 µg/mL (≈ 2.74 µM), an MIC (P. mirabilis A9900) of 6.3 µg/mL (≈ 10.8 µM) and an MIC (E. coli A9632) of 1.6 µg/mL (≈ 2.74 µM). The MIC (E. cloacae A20464) was 3.1 µg/mL (≈ 5.31 µM), the MIC (P. stuartii A20615) was 3.1 µg/mL (≈ 5.31 µM) and the MIC (P. Morganii A20031) was 6.3 µg/mL (≈ 10.8 µM). For the same molecule, the MIC (B. brevis ATCC8185) was 1.6 µg/mL (≈ 2.74 µM), the MIC (E. coli A20895) was 3.1 µg/mL (≈ 5.31 µM) and the MIC (S. aureus A22421) was 12.5 µg/mL (≈ 21.4 µM). For the same molecule, the MIC (S. marcescens A22288) was 3.1 µg/mL (≈ 5.31 µM), the MIC (P. aeruginosa GN4925) was 12.5 µg/mL (≈ 21.4 µM) and the MIC (S. marcescens A22382) was 6.3 µg/mL (≈ 10.8 µM). It also gave an MIC (S. marcescens A21226) of 3.1 µg/mL (≈ 5.31 µM), an MIC (P. aeruginosa GN315) of 25 µg/mL (≈ 42.8 µM) and an MIC (S. epidermidis A22211) of 12.5 µg/mL (≈ 21.4 µM). The MIC (P. rettgeri HM-56) was 12.5 µg/mL (≈ 21.4 µM), the MIC (S. epidermidis A22152) was 3.1 µg/mL (≈ 5.31 µM) and the MIC (S. aureus A22153) was 12.5 µg/mL (≈ 21.4 µM). It also gave an MIC (E. cloacae HM-43) of 3.1 µg/mL (≈ 5.31 µM), an MIC (S. marcescens A21235) of 12.5 µg/mL (≈ 21.4 µM) and an MIC (E. coli A2128) of 3.1 µg/mL (≈ 5.31 µM). For the same molecule, the antibacterial spectrum [4] was “antibacterial spectrum similar to amikacin”.
